Assay results as given in patent US20220175761A1, “BI-LIGAND DRUG CONJUGATE AND USE THEREOF” (COHERENT BIOPHARMA (SUZHOU), LIMITED, priority 2019, published 2022).
Numbered stars: 1 amine (or outer) side, 2 acyl side, 3 side chain; on linkers, the order of the positions; unused ones are H or OH. Bridge positions count the residues as written; N and C are the ends. Square brackets hold non-standard residues; d marks the D form. Side chains are listed from the residue outwards. Peptide text beside a SMILES is read from it. I, II: the chains in the order shown. * marks the point of attachment. EuK = O=C(O)CC[C@H](NC(=O)N[C@@H](CCCCN*)C(=O)O)C(=O)O; Pteroyl = Nc1nc2ncc(CNc3ccc(C(=O)*)cc3)nc2c(=O)[nH]1; Dolaproine = CO[C@@H]([C@@H]1CCCN1)[C@@H](C)C(=O)O; Dil = CC[C@H](C)[C@H](NC)[C@@H](CC(=O)O)OC; X3 = O=C1CC([*:2])C(=O)N1CCCCCC(=O)[*:1]; γGlu = O=C(O)[C@H](CCC(=O)[*:2])N[*:1]; PABC = O=C(OCc1ccc(N[*:1])cc1)[*:2]; X1 = C[C@@H](N*)[C@@H](O)c1ccccc1; X2 = O=C(Cc1ccc(CN[*:1])cc1)[*:2]; Cit = NC(=O)NCCC[C@H](N)C(=O)O; NMeV = CN[C@H](C(=O)O)C(C)C; CO = O=C([*:1])[*:2]

Experiments:
[1] = tested on: A549, Hela, SCLC-21H, U-2 OS, T-47D and NCI-H460 tumor cell lines; test: Inhibition of tumor cell expansion, CCK8 (CB-18G); format: cell-based, human
Protocol: Cell lines: A549 human lung cancer cells, Hela human cervical cancer cells, SCLC-21H small cell lung cancer cells, U-2 OS human osteosarcoma cells, T-47D human breast cancer cells and NCI-H460 human lung cancer cells
The cells were prepared in advance, digested with trypsin, collected and counted; diluted with a complete cell culture medium, A549 cells, Hela cells, SCLC-21H cells and U-2 OS cells were plated at a density of 2×10^4 cells/ml, and T-47D cells and NCI-H460 cells were plated at a density of 3×10^4 cells/ml in 96-well plates; to each well of the 96-well plates, 100 μl of the diluted cell solution was added; and negative control and blank control wells were set on each plate. The 96-well plates added with the cells were placed in an incubator at 37° C., 5% CO2 for culturing overnight.
The samples were diluted with a culture medium to desired concentrations (see Table 15). […]
(§1) To each well, 15 μl (10% of the liquid volume in a well) of a color developing solution from CCK-8 was added; the plates were incubated at 37° C. for an appropriate time (try to keep the OD value in the range of 1.0-2.0); the covers of the 96-well plates were removed, and the plates were read at 450 nm on a microplate reader (Molecular Devices Spectra MAX Plus). […]

[2] = tested on: KB, PC-9, SPC-A1, CALU-3 and DU145 cell lines (CDX tumor models); test: Pharmacodynamic study of CB-18G in CDX models; format: in vivo, BALB/c-nude mice; conditions: tail vein injection
Protocol: CB-18G lyophilized powder was weighed, dissolved with PBS and prepared into a sample mother solution, and the mother solution was diluted with a physiological saline for injection to a sample solution with a working concentration for later use.
Main cell lines: KB human oral epidermoid carcinoma cells, PC-9 human lung cancer cells, SPC-A1 human lung adenocarcinoma cells, CALU-3 human lung adenocarcinoma cells and DU145 human prostate cancer cells
(§2) Model construction: The cells were resuscitated, cultured, collected and counted, and the cell solution was subcutaneously injected into the right flank of BALB/c-nude mice. When the tumor grew and expanded to 80-160 mm^3, grouping and administration were performed, or rapidly expanded tumor masses were transferred and injected to mice for scale up.
(§3) Grouping: When the tumor grew to about 80-160 mm^3 on average, a grouping was performed, and a model control group and different doses of administration groups were set.
(§4) Administration: The mice were administrated via tail vein injection.
(§5) The weight of mice and the long diameter (a) and short diameter (b) of tumor mass were measured twice a week. The formula for the calculation of tumor volume (TV) is: TV=½×a×b^2.

[3] = tested on: KB, PC-9 and DU145 cell lines (CDX tumor models); test: Pharmacodynamic study of CB-20B in CDX models; format: in vivo, BALB/c-nude mice; conditions: tail vein injection
Protocol: CB-20B lyophilized powder was weighed, dissolved with PBS and prepared into a sample mother solution, and the mother solution was diluted with a physiological saline for injection to a sample solution with a working concentration for later use.
Main cell lines: KB human oral epidermoid carcinoma cells, PC-9 human lung cancer cells and DU145 human prostate cancer cells.
as §2, with “collected,” for “collected and”, “and” for “and the cell solution was”
as §3, §4, §5

[4] = tested on: A549, HuH-7, KB, LNcap, DU145 and T-47D tumor cell lines; test: Inhibition of tumor cell expansion, CCK8 (CB-20B); format: cell-based, human
Protocol: Cell lines: A549 human lung cancer cells, HuH-7 human liver cancer cells, KB human oral epidermoid carcinoma cells, LNCaP human prostate cancer cells, DU145 human prostate cancer cells and T-47D human breast cancer cells
The cells were prepared in advance, digested with trypsin, collected and counted; diluted with a complete cell culture medium, A549 cells, HuH-7 cells, KB cells and DU145 cells were plated at a density of 2×10^4 cells/ml, T-47D cells were plated at a density of 1×10^5 cells/ml, and LNCaP cells were plated at a density of 6×10^4 cells/ml in 96-well plates; 100 μl of the diluted cell solution was added to each well; and negative control and blank control wells were set on each plate. The 96-well plates added with the cells were placed in an incubator at 37° C., 5% CO2 for culturing overnight.
The samples were diluted with a culture medium to desired concentrations (see Table 11). […]
as §1

SMILES | inhibitory effect on growth and expansion of tumor cell lines ([1]; 72 hours, CCK-8) | IC50 compared between cell lines ([1]; Hela versus NCI-H460) | inhibitory effect in CDX tumor models (tumor volume) [2] | inhibitory effect in CDX tumor models (tumor volume) [3] | inhibitory effect on growth and expansion of tumor cell lines ([4]; 72 hours, CCK-8) | IC50 compared between cell lines ([4]; T-47D, LNcap, KB, HuH-7 and DU145 versus A549)
CCCC(=O)N[C@@H](Cc1ccccc1)C(=O)N[C@H]1CSSC[C@@H](C(=O)N[C@H](C(=O)N[C@@H](CCCCNC(=O)[C@H](CCC(=O)O)NC(=O)CCOCCOCCOCCOCCNC(=O)[C@H](CCC(=O)O)NC(=O)[C@H](CSC2CC(=O)N(CCCCCC(=O)N[C@H](C(=O)NC(CCCNC(N)=O)C(=O)Nc3ccc(COC(=O)N(C)[C@H](C(=O)N[C@H](C(=O)N(C)[C@@H]([C@@H](C)CC)[C@@H](CC(=O)N4CCC[C@H]4[C@H](OC)[C@@H](C)C(=O)N[C@H](C)[C@@H](O)c4ccccc4)OC)C(C)C)C(C)C)cc3)C(C)C)C2=O)NC(=O)CC[C@H](NC(=O)c2ccc(NCc3cnc4[nH]c(N)nc(=O)c4n3)cc2)C(=O)O)C(N)=O)[C@@H](C)O)NC(=O)[C@H]([C@@H](C)O)NC(=O)[C@H](CCCCN)NC(=O)[C@H](Cc2c[nH]c3ccccc23)NC(=O)[C@H](Cc2ccc(O)cc2)NC1=O (stereo partly drawn) [CB-18G] | has an inhibitory effect | significantly lower | good inhibitory effect | – | – | –
CC[C@H](C)[C@@H]([C@@H](CC(=O)N1CCC[C@H]1[C@H](OC)[C@@H](C)C(=O)N[C@H](C)[C@@H](O)c1ccccc1)OC)N(C)C(=O)[C@@H](NC(=O)[C@H](C(C)C)N(C)C(=O)OCc1ccc(NC(=O)[C@H](CCCNC(N)=O)NC(=O)[C@@H](NC(=O)CCCCCN2C(=O)CC(SC[C@H](NC(=O)[C@H](CC(=O)O)NC(=O)[C@H](CC(=O)O)NC(=O)Cc3ccc(CNC(=O)NCCCC[C@H](NC(=O)N[C@@H](CCC(=O)O)C(=O)O)C(=O)O)cc3)C(=O)N[C@@H](CCCCNC(=O)CC[C@H](NC(=O)c3ccc(NCc4cnc5[nH]c(N)nc(=O)c5n4)cc3)C(=O)O)C(N)=O)C2=O)C(C)C)cc1)C(C)C (stereo partly drawn) [CB-20B] (I: V[Cit][PABC][NMeV]V[Dil][Dolaproine]-X1 / II: {EuK-CO}-[X2]DDCK([γGlu-Pteroyl])-NH2; linker I:N-II:4 via X3) | – | – | – | good inhibitory effect | has an inhibitory effect | significantly lower
